Results from US8603545B2, “Cosmetic and pharmaceutical uses of an extract of a plant belonging to the genus Buchholzia” (BASF Beauty Care Solutions France S.A.S., priority 2004, dated 2013).

Assays:
Format in all cases: cell-based
[1] = test system: human keratinocytes; test: Inhibition of UVB effect on human keratinocytes
From the text: Aim of the experiment: Determination of the potential of the tested ingredient to reduce negative effects of UV-B radiation on the survival rate of human keratinocytes. It is well known that UV-B radiation induces a cutaneous inflammation by stimulation of enzymes such as phospholipase A2 (PLA2). This enzyme catalyses the release of arachidonic acid which is a precursor of mediators of inflammation like the prostaglandin PGE2. Moreover this membrane stress results in the release of a cytoplasmic enzyme: lactate dehydrogenase (LDH). • Seeding of human keratinocytes in a growth medium • Incubation for 3 days at 37° C., CO2=5% (atmosphere: 5% carbon dioxide in air) • Exchange of the growth medium by balanced salt solution with a range of concentration of ingredients to be tested • Irradiation of keratinocytes by UV-B: 30 mJ/cm^2 • Incubation for 1 day at 37° C., CO2=5% • Recording of cell number by DNA measurement with a fluorescent probe • Recording of the level of released LDH (by an enzymatic reaction) and released PGE2 (by ELISA method) Results in % against control (average of 2 assays in triplicate): […]

[2] = test system: B16 melanocytes; test: Inhibition of melanin synthesis, efficacy test on B16 melanocytes
Protocol: Aim of the experiment: to evaluate the potential of compounds to lower the melanin synthesis; the compounds have been tested on a cell culture of melanocytes called B16. • Seeding of melanocytes in growth medium • Incubation for 3 days at 37° C., CO2=5% (atmosphere: 5% carbon dioxide in air) • Exchange of the growth medium by a medium with a range of concentration of ingredients to be tested • Incubation for 3 days at 37° C., CO2=5% (atmosphere: 5% carbon dioxide in air) • Recording of Cellular levels of protein by Bradford's method • Recording of melanin by a spectrophotometric method (OD at 475 nm) Results in % against control (average of 2 assays in triplicate): […]

[3] = test system: human fibroblasts; test: Inhibition of UVA effect on human fibroblasts
Protocol: Aim of the experiment: Determination of the potential of the tested ingredient to reduce negative effects of UV-A radiation on the survival rate of human fibroblasts.
• Seeding of human fibroblasts in a growth medium • Incubation for 3 days at 37° C., CO2=5% (atmosphere: 5% carbon dioxide in air) • Exchange of the growth medium by a medium with a range of concentration of ingredients to be tested • Incubation for 2 days at 37° C., CO2=5% • Exchange of the medium with ingredients by a balanced salt solution and UV-A irradiation (20 J/cm^2) • Recording of released MDA levels by spectro-fluorimetry. (MDA (malonaldialdehyde) is a product of oxidative degradation of lipids from cell membranes) • Recording of intracellular proteins by Bradford's method
Results in % against control (average of 2 assays in triplicate): […]

[4] = UV-B 30 mJ/cm2, dose 0.03 % w/v
[5] = UV-A 20 J/cm2, dose 0.0003 % w/v

## CC(=O)Oc1ccccc1C(=O)O [Aspirin ®, Aspirin]
[1]
  level of cell number from UV-B irradiated keratinocytes (in words): strongly increased
  level of released LDH from UV-B irradiated keratinocytes (in words): strongly decreased
  level of released PGE2 from UV-B irradiated keratinocytes (in words): strongly decreased
[1]; [4]
  Cell number: 59 % against control
  Level of released LDH: 8 % against control
  Level of released PGE2: 0 % against control

## O=c1cc(CO)occ1O [kojic acid]
[2]
  rate of released melanin from treated B16 melanocytes (in words): strongly decreased
[2]; dose 0.03 % w/v
  Rate of cellular proteins: 117 % against control
  Rate of melanin: 34 % against control

## Vitamin E
[3]
  rate of released MDA from UV-A irradiated fibroblasts (in words): strongly decreased
[3]; [5]
  Intracellular proteins: 103 % against control
  Rate of released MDA: 25 % against control
